Assay results: patent US20220386606A1, “SPECIFICALLY SUBSTITUTED 3-PHENYL-5-SPIROCYCLOPENTYL-3-PYRROLIN-2-ONES AND THEIR USE AS HERBICIDES” (Bayer Aktiengesellschaft, priority 2019, published 2022)

How the values were obtained:
[1] = test system: ECHCG; assay: Post-emergence herbicidal action against ECHCG; format: in vivo, Echinochloa crus-galli; conditions: 80 g/ha, visual assessment about 3 weeks after treatment vs untreated controls
Description: (§1) Seeds of monocotyledonous and dicotyledonous weed and crop plants are laid out in sandy loam soil in wood-fiber pots, covered with soil and cultivated in a greenhouse under good growth conditions. 2 to 3 weeks after sowing, the test plants are treated at the one-leaf stage. The compounds of the invention, formulated in the form of wettable powders (WP) or as emulsion concentrates (EC), are then sprayed onto the green parts of the plants as aqueous suspension or emulsion at a water application rate equating to 600 to 800 l/ha with addition of 0.2% wetting agent. After the test plants have been left to stand in the greenhouse under optimal growth conditions for about 3 weeks, the action of the preparations is assessed visually in comparison to untreated controls (herbicidal action in percent (%): 100% activity=the plants have died, 0% activity=like control plants).

[2] = test system: AVEFA; assay: Post-emergence herbicidal action against AVEFA; format: in vivo, Avena fatua; conditions: 80 g/ha, visual assessment after about 3 weeks
Description: as §1

[3] = test system: SETVI; assay: Post-emergence herbicidal action against SETVI; format: in vivo, Setaria viridis; conditions: 80 g/ha, visual assessment about 3 weeks after treatment vs untreated controls
Description: as §1

[4] = test system: LOLRI; assay: Post-emergence herbicidal action against LOLRI; format: in vivo, Lolium rigidum; conditions: 80 g/ha, visual assessment about 3 weeks after treatment vs untreated controls
Description: as §1

[5] = test system: DIGSA; assay: Post-emergence herbicidal action against DIGSA; format: in vivo, Digitaria sanguinalis; conditions: 80 g/ha, visual assessment about 3 weeks after treatment vs untreated controls
Description: as §1

[6] = test system: LOLRI; assay: Pre-emergence herbicidal action against LOLRI (Table 8, titled post-emergence at 320 g/ha); format: in vivo, Lolium rigidum; conditions: table stands in the pre-emergence section
Excerpt: (§2) Seeds of monocotyledonous and dicotyledonous weed plants and crop plants are laid out in sandy loam soil in wood-fiber pots and covered with soil. The compounds of the invention, formulated in the form of wettable powders (WP) or as emulsion concentrates (EC), are then applied to the surface of the covering soil as aqueous suspension or emulsion at a water application rate equating to 600 to 800 L/ha with addition of 0.2% wetting agent.
(§3) After the treatment, the pots are placed in a greenhouse and kept under good growth conditions for the trial plants. The damage to the test plants is scored visually after a test period of 3 weeks by comparison with untreated controls (herbicidal activity in percent (%): 100% activity=the plants have died, 0% activity=like control plants).

[7] = test system: SETVI; assay: Pre-emergence herbicidal action against SETVI; format: in vivo, Setaria viridis; conditions: 320 g/ha, scored visually after 3 weeks vs untreated controls
Excerpt: as §2, §3

[8] = test system: DIGSA; assay: Pre-emergence herbicidal action against DIGSA; format: in vivo, Digitaria sanguinalis; conditions: 320 g/ha, scored visually after 3 weeks vs untreated controls
Excerpt: as §2, §3

[9] = test system: ALOMY; assay: Post-emergence herbicidal action against ALOMY; format: in vivo, Alopecurus myosuroides; conditions: 80 g/ha, visual assessment after about 3 weeks
Description: as §1

[10] = test system: ALOMY; assay: Pre-emergence herbicidal action against ALOMY; format: in vivo, Alopecurus myosuroides; conditions: 320 g/ha, scored visually after 3 weeks vs untreated controls
Excerpt: as §2, §3

[11] = test system: ECHCG; assay: Pre-emergence herbicidal action against ECHCG; format: in vivo, Echinochloa crus-galli; conditions: 320 g/ha, scored visually after 3 weeks vs untreated controls
Excerpt: as §2, §3

[12] = test system: AVEFA; assay: Pre-emergence herbicidal action against AVEFA; format: in vivo, Avena fatua; conditions: 320 g/ha, scored visually after 3 weeks vs untreated controls
Excerpt: as §2, §3

Structure (SMILES)	Post-emergence action against ECHCG in % [1] [%]	Post-emergence action against AVEFA in % [2] [%]	Post-emergence action against SETVI in % [3] [%]	Post-emergence action against LOLRI in % [4] [%]	Post-emergence action against DIGSA in % [5] [%]	Pre-emergence herbicidal action against LOLRI in % [6] [%]	Pre-emergence action against SETVI in % [7] [%]	Pre-emergence action against DIGSA in % [8] [%]	Post-emergence action against ALOMY in % [9] [%]	Pre-emergence action against ALOMY in % [10] [%]	Pre-emergence action against ECHCG in % [11] [%]	Pre-emergence action against AVEFA in % [12] [%]
CC#Cc1cc(C)c(C2=C(O)C3(CCC(COC)C3)NC2=O)c(F)c1 (centres unmarked) [Example I-34]	100	90	100	100	100	100	100	100	100	–	–	–
CC#Cc1cc(C)c(C2=C(O)C3(CCC(COCC)C3)NC2=O)c(F)c1 (centres unmarked) [Example I-37]	100	100	100	90	100	100	100	90	100	80	100	–
CC#Cc1cc(F)c(C2=C(O)C3(CCC(COCC)C3)NC2=O)c(OC)c1 (centres unmarked) [Example I-43]	100	90	100	90	–	100	100	100	100	100	100	100
C=CCOCC1CCC2(C1)NC(=O)C(c1c(F)cc(C#CC)cc1OC)=C2O (centres unmarked) [Example I-54]	100	–	100	90	–	100	100	100	100	100	100	80
CC#Cc1cc(F)c(C2=C(O)C3(CCC(COCCC)C3)NC2=O)c(OC)c1 (centres unmarked) [Example I-56]	100	90	100	80	90	100	100	100	90	80	100	–
CC#Cc1cc(F)c(C2=C(O)C3(CCC(COCCC)C3)NC2=O)c(OC)c1 (centres unmarked) [Example I-57]	100	–	100	80	90	100	100	100	–	100	100	–
CC#Cc1cc(Br)c(C2=C(O)C3(CCC(COCC)C3)NC2=O)c(OCC)c1 (centres unmarked) [Example I-63]	100	80	100	90	90	100	100	100	100	100	100	100
CC#Cc1cc(Br)c(C2=C(O)C3(CCC(COCC)C3)NC2=O)c(OCC)c1 (centres unmarked) [Example I-64]	100	80	100	90	80	100	100	100	90	100	100	80
CC#Cc1cc(Br)c(C2=C(O)C3(CCC(COC)C3)NC2=O)c(OCC)c1 (centres unmarked) [Example I-66]	100	80	100	100	90	100	100	100	100	100	100	100
C#CCOCC1CCC2(C1)NC(=O)C(c1c(F)cc(C#CC)cc1OC)=C2O (centres unmarked) [Example I-74]	100	80	100	90	90	100	100	100	90	100	100	90
CC#Cc1cc(Br)c(C2=C(OC(=O)C(C)C)C3(CCC(COC)C3)NC2=O)c(CC)c1 (centres unmarked) [Example P-45]	–	–	–	–	–	–	80	–	–	–	–	–
CC#Cc1cc(F)c(C2=C(OC(=O)OCC)C3(CCC(COC)C3)NC2=O)c(OC)c1 (centres unmarked) [Example P-63]	100	80	100	100	100	100	100	100	100	100	90	90
C=CCOCC1CCC2(C1)NC(=O)C(c1c(C)cc(C#CC)cc1OC)=C2OC(=O)OCC (centres unmarked) [Example P-68]	100	90	100	90	90	100	100	100	100	100	100	–
C=CCOCC1CCC2(C1)NC(=O)C(c1c(F)cc(C#CC)cc1OC)=C2OC(=O)OCC (centres unmarked) [Example P-78]	100	–	100	–	90	100	100	100	100	100	100	–
CC#Cc1cc(Br)c(C2=C(OC(=O)OCC)C3(CCC(COC)C3)NC2=O)c(OCC)c1 (centres unmarked) [Example P-94]	100	–	100	90	80	100	100	100	–	100	100	100
